Data on 33 compounds can be found in patent US8067442B2, “Heterocyclic antiviral compounds” (Roche Palo Alto LLC, priority 2008, dated 2011).

pIC50: −log10 of the molar value.

As a reminder, the pIC50 is the IC50 on a negative log10 scale, so that one unit is a factor of ten. A high value points to a low IC50. Broadly, the melting point is the temperature, or range, at which the solid turns liquid.

Series [1] addresses T1, HCV polymerase (NS5B570n-Con1) (Hepatitis C virus genotype 1b, UniProt Q9WMX2).
T1 construct: a 21 amino acid C-terminal deletion of full-length HCV polymerase; made in house; host or cells: E. coli BL21(DE3) pLysS, plasmid pET17b
Kind of series: biochemical. Also on record: species or system HCV Con1 strain. How it is done: The enzymatic activity of HCV polymerase (NS5B570n-Con1) was measured as the incorporation of radiolabeled nucleotide monophosphates into acid insoluble RNA products. Unincorporated radiolabeled substrate was removed by filtration and scintillant was added to the washed and dried filter plate containing radiolabeled RNA product. The amount of RNA product generated by NS5B570n-Con1 at the end of the reaction was directly proportional to the amount of light emitted by the scintillant.
The HCV polymerase used in the enzymatic activity assay is a 21 amino acid C-terminal deletion of full-length HCV polymerase derived from HCV Con1 strain, genotype 1b (GenBank accession number AJ242654) (NS5B570n-Con1). The NS5B570n-Con1 was sub-cloned downstream to the T7 promoter of the plasmid expression construct pET17b and transformed into E. coli strain BL21(DE3) pLysS for protein expression. A single colony was used to start an innoculum for a 10 L culture in LB media supplemented with 100 μg/mL ampicillin at 37° C. Protein expression was induced by the addition of 0.25 mM isopropyl-β-D-thiogalactopyranoside (IPTG) when the optical density of the culture at […] was 0.8. Induction of protein expression was carried out at 30° C. for 16 h after which the cells were harvested by centrifugation. NS5B570n-Con1 was purified to homogeneity using a three-column purification protocol including subsequent column chromatography on Ni-NTA, SP-Sepharose HP and Superdex 75 resins.
Enzymatic reactions in the presence of cIRES RNA template (see section [0300]) contained 20 nM cIRES RNA, 20 nM NS5B570n-Con1 enzyme, 0.5 μCi of tritiated UTP (Perkin Elmer catalog no. TRK-412; specific activity: 30 to 60 Ci/mmol), 1 μM each ATP, CTP, and GTP, 40 mM Tris-HCl pH 8.0, 40 mM NaCl, 4 mM DTT (dithiothreitol), 4 mM MgCl2, 5 μl of compound serial diluted in DMSO, and nuclease-free water to a final reaction volume of 50 μl. Enzymatic reactions in the presence of 20 nM cIRES template, 20 nM NS5B570n-Con1 enzyme, 1 μCi of tritiated UTP (Perkin Elmer catalog no. TRK-412; specific activity: 30 to 60 Ci/mmol), 40 mM Tris-HCl pH 8.0, 40 mM NaCl, 4 mM DTT (dithiothreitol), 4 mM MgCl2, 5 μl of compound serial diluted in DMSO, and nuclease-free water to a final reaction volume of 50 μl. Reaction mixtures were assembled in 96-well filter plates (cat #MADVNOB, Millipore Co.) and incubated for 2 h at 30° C. Reactions were stopped by addition of 10% final (v/v) trichloroacetic acid and incubated for 40 min at 4° C. Reactions were filtered, washed with 8 reaction volumes of 10% (v/v) trichloroacetic acetic acid, 4 reaction volumes of 70% (v/v) ethanol, air dried, and 25 μl of scintillant (Microscint 20, Perkin-Elmer) was added to each reaction well.
Two RNA templates can be used to assay compounds described herein. The cIRES RNA template is 377 nucleotide long and consisting of a partial complementary sequence (36 nucleotides) of the core protein, followed by 341 nucleotide of the complementary sequence of the internal ribosome entry site. The poly A RNA template (GE Amersham catalog number 27-4110) was a homopolymeric RNA pre-annealed to a oligo(rU)16 primer at a molar ratio of 3-to-1 (primer-template). The cIRES template was used in the assay unless otherwise noted.
The amount of light emitted from the scintillant was converted to counts per minute (CPM) on a Topcount® plate reader (Perkin-Elmer, Energy Range: Low, Efficiency Mode Normal, Count Time: 1 min, Background Subtract: none, Cross talk reduction: Off).
Data was analyzed in Excel® (Microsoft®) and ActivityBase® (Idbs®). The reaction in the absence of enzyme was used to determine the background signal, which was subtracted from the enzymatic reactions. […] All data was expressed as a percentage of the positive control. The compound concentration at which the enzyme-catalyzed rate of RNA synthesis was reduced by 50% (IC50) was calculated by fitting

Compound `CC(C)(C)c1cc(-c2ncc[nH]c2=O)cc2c(C(=O)N3CCCC(CNS(C)(=O)=O)C3)coc12` (stereo not shown) [Compound 102, N-{1-[7-tert-Butyl-5-(3-oxo-3,4-dihydro-pyrazin-2-yl)-benzofuran-3-carbonyl]-piperidin-3-ylmethyl}-methanesulfonamide] displayed a melting point of 172 to 174 °C. The compound further gave a pIC50 in series [1] of 8.10.

Take `CC(C)(C)c1cc(-c2ccc[nH]c2=O)cc2c(C(=O)N3CCCC(CNS(C)(=O)=O)C3)csc12` (stereo not shown) [Compound 114, N-{1-[7-tert-Butyl-5-(2-oxo-1,2-dihydro-pyridin-3-yl)-benzo[b]thiophene-3-carbonyl]-piperidin-3-ylmethyl}-methanesulfonamide]: the melting point is 175 to 177 °C. This compound had a pIC50 in series [1] of 8.52.

With `CC(C)(C)c1cc(-c2ccc[nH]c2=O)cc2c(C(=O)N3CCC[C@@H]3CNS(C)(=O)=O)csc12` [Compound 116, N-{(R)-1-[7-tert-Butyl-5-(2-oxo-1,2-dihydro-pyridin-3-yl)-benzo[b]thiophene-3-carbonyl]-pyrrolidin-2-ylmethyl}-methanesulfonamide], the melting point was in the range of 289 to 291 °C. The compound also gave a pIC50 in series [1] of 8.40.

The compound `CC(C)(C)c1cc(-c2ccc[nH]c2=O)cc2ccoc12` [Compound I-2, 3-(7-tert-Butyl-benzofuran-5-yl)-1H-pyridin-2-one] returned a melting point of 217 to 218 °C. The pIC50 in series [1] was 6.69.

In turn, `CC(C)(C)c1cc(-c2ccc[nH]c2=O)cc2c(CC#N)coc12` [Compound I-5, [7-tert-Butyl-5-(2-oxo-1,2-dihydro-pyridin-3-yl)-benzofuran-3-yl]-acetonitrile] showed a melting point of 231 to 232 °C. In series [1], this compound had a pIC50 of 6.48.

Consider `CC(C)(C)c1cc(-c2ccc[nH]c2=O)cc2c(CC(=O)O)coc12` [Compound I-6, [7-tert-Butyl-5-(2-oxo-1,2-dihydro-pyridin-3-yl)-benzofuran-3-yl]-acetic acid], for which the melting point lay within 233 to 234 °C. Further, the pIC50 in series [1] is 6.45.

In the case of `CC(C)(C)c1cc(-c2ccc[nH]c2=O)cc2c(C(=O)c3ccccc3)coc12` [Compound I-20], the melting point fell in the range of 271 to 272 °C. Moreover, the pIC50 in series [1] was 7.31.

In turn, `CC(C)(C)c1cc(-c2ccc[nH]c2=O)cc2c(-c3ccccc3)coc12` [Compound I-24] returned a melting point of 257 to 258 °C. Besides, the pIC50 in series [1] was 7.72.

On to `COc1cccc(-c2coc3c(C(C)(C)C)cc(-c4ccc[nH]c4=O)cc23)c1` [Compound I-33], for which the melting point is 204 to 205 °C. The compound further showed a pIC50 in series [1] of 7.85.

Take `CC(C)(C)c1cc(-c2ccc[nH]c2=O)cc2c(C(=O)c3cccc(O)c3)coc12` [Compound I-36, 3-[7-tert-Butyl-3-(3-hydroxy-benzoyl)-benzofuran-5-yl]-1H-pyridin-2-one]: the melting point was 268 to 269 °C. Further, the pIC50 in series [1] is 7.42.

`CC(C)(C)c1cc(-c2ccc[nH]c2=O)cc2c(-c3ccc(CNS(C)(=O)=O)cc3)coc12` [Compound I-37, N-{4-[7-tert-Butyl-5-(2-oxo-1,2-dihydro-pyridin-3-yl)-benzofuran-3-yl]-benzyl}1-methanesulfonamide] registered a melting point of 271 to 273 °C. Also, in series [1], the pIC50 was 8.40.

As for `CC(C)(C)c1cc(-c2ccc[nH]c2=O)cc2c(C(=O)N3CCC[C@H](N)C3)coc12` [Compound I-41], the melting point lay within 269 to 270 °C. Further, the pIC50 in series [1] was 6.90.

With `CC(C)(C)c1cc(-c2ccc[nH]c2=O)cc2c(C(=O)N3CCC[C@@H](N)C3)coc12` [Compound I-42], the melting point lay within 254.9 to 258.1 °C. The same compound gave a pIC50 in series [1] of 6.26.

`CC(C)(C)c1cc(-c2ccc[nH]c2=O)cc2c(C(=O)N3CCC(CN)C3)coc12` (stereo not shown) [Compound I-49] registered a melting point above 300 °C. In series [1], the pIC50 was 6.98.

`CC(C)(C)c1cc(-c2ccc[nH]c2=O)cc2c(C(=O)N3CCCC(CN)C3)coc12` (stereo not shown) [Compound I-50]: the melting point is 150 to 155 °C. The compound further had a pIC50 in series [1] of 7.29.

Regarding `CC(C)(C)c1cc(-c2ccc[nH]c2=O)cc2c(-c3cccc(CN)c3)coc12` [Compound I-62], the pIC50 in series [1] is 6.05.

For the compound `COC(=O)[C@@H]1C[C@@H](O)CN1C(=O)c1coc2c(C(C)(C)C)cc(-c3ccc[nH]c3=O)cc12` [Compound I-63], in series [1], the negative-log IC50 (pIC50) is 5.79.

Regarding `CC(C)(C)c1cc(-c2ccc[nH]c2=O)cc2c(C(=O)N3CCC(O)(C(N)=O)CC3)coc12` [Compound I-64], the pIC50 in series [1] is 7.01.

For the compound `CC(C)(C)c1cc(-c2ccc[nH]c2=O)cc2c(C(=O)N3CCC(O)C3)coc12` (stereo not shown) [Compound I-65], the pIC50 in series [1] is 6.90.

For `CCNC1(C(N)=O)CCN(C(=O)c2coc3c(C(C)(C)C)cc(-c4ccc[nH]c4=O)cc23)CC1` [Compound I-66], in series [1], the pIC50 was 6.87.

For `CN(C)[C@@H]1CCN(C(=O)c2coc3c(C(C)(C)C)cc(-c4ccc[nH]c4=O)cc23)C1` [Compound I-67], the pIC50 in series [1] was 6.05.

`CC(C)(C)c1cc(-c2ccc[nH]c2=O)cc2c(C(=O)N3CCC(F)(F)CC3)coc12` [Compound I-68] had a pIC50 in series [1] of 6.22.

The compound `CC1(C)CCCN(C(=O)c2coc3c(C(C)(C)C)cc(-c4ccc[nH]c4=O)cc23)C1` [Compound I-69] gave a pIC50 in series [1] of 6.08.

With `CC(C)(C)c1cc(-c2ccc[nH]c2=O)cc2c(C(=O)N3CCC(CO)C3)coc12` (stereo not shown) [Compound I-70], the pIC50 in series [1] was 7.28.

`CC(C)(C)c1cc(-c2ccc[nH]c2=O)cc2c(C(=O)N3CCSC3)coc12` [Compound I-71] gave a pIC50 in series [1] of 7.30.

Regarding `CC(C)(C)c1cc(-c2ccc[nH]c2=O)cc2c(C(=O)N3CC[C@H](CNS(C)(=O)=O)C3)coc12` [Compound I-72], the melting point fell in the range of 258 to 260 °C. Further, the pIC50 in series [1] was 8.10.

In series [1], `CC(C)(C)c1cc(-c2ccc[nH]c2=O)cc2c(C(=O)N3CC[C@@H](CNS(C)(=O)=O)C3)coc12` [Compound I-73, N-{(R)-1-[7-tert-Butyl-5-(2-oxo-1,2-dihydro-pyridin-3-yl)-benzofuran-3-carbonyl]-pyrrolidin-3-ylmethyl}-methanesulfonamide] gave a pIC50 of 7.68.

The compound `CC(C)(C)c1cc(-c2cc(F)c[nH]c2=O)cc2c(-c3ccc(CNS(C)(=O)=O)cc3)coc12` [Compound I-74] showed a pIC50 in series [1] of 7.43.

Compound `CC(=O)NC[C@H]1CCN(C(=O)c2coc3c(C(C)(C)C)cc(-c4ccc[nH]c4=O)cc23)C1` [Compound I-75] gave a pIC50 in series [1] of 6.71.

On to `CC(C)(C)c1cc(-c2ccc[nH]c2=O)cc2c(C(=O)N3CCCC(CNS(C)(=O)=O)C3)coc12` (stereo not shown) [Compound I-90], for which, in series [1], the pIC50 is 8.22.

In series [1], `CC(C)(C)c1cc(-c2ccc[nH]c2=O)cc2c(-c3ccc(CNS(C)(=O)=O)nc3)coc12` [Compound I-93, N-{5-[7-tert-Butyl-5-(2-oxo-1,2-dihydro-pyridin-3-yl)-benzofuran-3-yl]-pyridin-2-ylmethyl}-methanesulfonamide] gave a pIC50 of 7.92.

`CC(C)(C)c1cc(-c2ccc[nH]c2=O)cc2c(C(=O)N3CCC[C@@H](CNS(C)(=O)=O)C3)coc12` [Compound I-101]: in series [1], the pIC50 was 8.05.

`Cn1cc(C#N)c2cc(-c3ccc[nH]c3=O)cc(C(C)(C)C)c21` [Compound I-110] gave a pIC50 in series [1] of 6.50.
